Test: Human HepG2 cell viability assay in 384 well format
Type: toxicity, cell-based
Design: dose 125 nL, time 70.5 hour; concentration not given beside the values
Conditions: HepG2 cells, read-out: Inhibition

Row | SMILES | cytotoxicity at 70.5 h
1 | Cc1cc(CN2CCC(CNS(=O)(=O)c3ccccc3F)CC2)c(C)o1 | 37.7%
2 | CCOc1ccc(S(=O)(=O)NCCc2ccc(N(C)C)cc2)cc1C | -3.6%
3 | CCOc1ccc(S(=O)(=O)NCCCc2ccc(N(C)C)cc2)cc1C | -1.63%
4 | O=C(CCc1ccccc1)NCC1CCN(Cc2ccccc2)CC1 | 0.0668%
5 | O=C(Cc1ccccc1Cl)NCC1CCN(Cc2ccsc2)CC1 | -5.31%
6 | O=C(NCc1ccccc1)NCC1CCN(Cc2ccsc2)CC1 | -7.87%
7 | O=C(NCC1CCN(c2ncccn2)CC1)c1cnccn1 | -12.6%
8 | Cc1cc2nc(C(C)C)cc(N[C@H](C(N)=O)C(C)C)n2n1 | 32.4%
9 | Cc1ccc2nc(-c3nc4c([nH]3)CCCNC4=O)cn2c1 | -10.1%
10 | CC(=O)NCC1CCC2(CCN(c3ncc(C)cn3)CC2)O1 (stereo not drawn) | -3.04%
11 | COc1ccc(-n2cccn2)cc1S(=O)(=O)N1C[C@H](C2CC2)[C@@H](N)C1 | -3.3%
12 | Cc1cccc(C(C(=O)NCc2nc(-c3cccnc3)no2)N(C)C)c1 (stereo not drawn) | 19.5%
13 | CCc1cnc(NCC(C)Oc2cccnc2)nc1 (stereo not drawn) | -5.39%
14 | CCc1cc(N[C@H]2CCC[C@H]2O)n2nccc2n1 | 7.67%
15 | CN1CCCN(C[C@H]2C[C@H](CO)CN(Cc3cccnc3N)C2)CC1 | 22.4%
16 | COC(=O)NCC(=O)N1CCCCC1c1nc2cc(F)ccc2[nH]1 (stereo not drawn) | 1.25%
17 | COCC[C@]1(O)CCN(C(=O)CCn2c(C)cccc2=O)C[C@H]1C | 12.1%
18 | CN(Cc1n[nH]c2c1CCC2)C(=O)CCc1cc2n(n1)CCNC2 | -4.27%
19 | O=C(NCCc1csc(-c2ccncc2)n1)C1CC(=O)N(C2CC2)C1 (stereo not drawn) | -3.67%
20 | CC[C@H](C)[C@@H](CO)NC(C)Cc1ccccc1F (stereo partly drawn) | -2.57%
21 | Cn1c(-c2cc3n(n2)CCCN(CC(=O)O)C3)nc2ccccc21 | 22.8%
22 | CCCn1cc(S(=O)(=O)N[C@H]2CN(CCO)C[C@@H]2C2CC2)cn1 | -7.84%
23 | Cc1ccc(OCC2CCCN(C(=O)Cn3ccccc3=O)C2)cc1 (stereo not drawn) | 25%

Row | SMILES | cytotoxicity at 70.5 h
24 | CCNc1ncc(C(=O)N2Cc3nc(C)[nH]c(=O)c3C2)cn1 | 4.44%
25 | CC(C)(C)n1cc(C2=CCN(CCNC(N)=O)CC2)cn1 | -0.0754%
26 | CN1CCC(N(CCc2ccccc2)C(=O)c2ccc(CO)cc2)CC1 | -11.1%
27 | NCCn1cc(C(=O)NCc2ccccc2-n2cccn2)nn1 | -4.33%
28 | COCc1c(C(=O)N2CCCC(C(=O)c3ccccc3)C2)noc1C (stereo not drawn) | -3.85%
29 | Cn1cc2ncn(CCNc3cccnc3)c(=O)c2n1 | -3.81%
30 | Cc1cc(C(=O)N2C[C@H]3CC[C@@H]2CN(C)C3)ccc1Cl | 29.4%
31 | OCCO[C@H]1C[C@@H](O)C12CCN(Cc1nc(C(F)(F)F)no1)CC2 | -8.19%
32 | CSc1ncc(C(=O)N2C[C@@H](NC(C)=O)[C@H](c3ccc(C)cc3)C2)cn1 | -5.41%
33 | CO[C@H]1CN(C(C)C)C[C@@H]1NC(=O)c1cc(-c2ccccc2O)n[nH]1 | -1.03%
34 | Cc1nc(CNC(=O)CC2C(=O)NCCN2CCC(C)C)n[nH]1 (stereo not drawn) | -8.3%
35 | COc1ccccc1OC1(C(=O)O)CCN(c2cc(C)nc(C)c2)CC1 | -0.575%
36 | O=C(C1CCC1)N1CC[C@]2(O)CCN(Cc3ncccn3)C[C@@H]2C1 | -9.87%
37 | COCCC1CCCCN1Cc1nc(Cc2cccc(F)c2)no1 (stereo not drawn) | -2.75%
38 | CSCC(=O)N1CCc2c(cnc(C)c2-c2noc(-c3cc[nH]n3)n2)C1 | -12.6%
39 | Cc1ccc(C)c(OC(C)C(=O)NCCNc2cccnc2)c1 (stereo not drawn) | -0.127%
40 | COCCN(C)C[C@@H]1CN(C(=O)c2ccc(O)c(Cl)c2)C[C@@H]1CO | -4.52%
41 | CN(C)[C@H]1CN(C(=O)c2ccc3sc4c(c3c2)CCNC4=O)C[C@@H]1O | -1.45%
42 | CCCc1nnc(N2CCN(c3ccccc3OCC)CC2)o1 | -4.12%
43 | C/C(=C\c1ccco1)CN(C)C(C)Cc1ccccn1 (stereo not drawn) | 16%
44 | CCOc1ccccc1C(=O)N1CCCC(c2nccn2CCOC)C1 (stereo not drawn) | 10.7%
45 | CCc1nnc(NCc2cccc(OC)c2OC)o1 | 8.49%
46 | Cc1ccnc(NCc2cn3nc(C)sc3n2)n1 | 1.46%

Row | SMILES | cytotoxicity at 70.5 h
47 | COc1ccc(-n2ncc(C(C)NC3Cc4ccccc4C3)c2C)cc1 (stereo not drawn) | 5.61%
48 | CCc1cc(CN(C)Cc2nc(-c3ccc(OC)cc3F)oc2C)on1 | -5.4%
49 | Cc1nc(N2CCCN(C(=O)c3ccsc3)CC2)c2cnn(C)c2n1 | -2.94%
50 | CCCNC(=O)NC(=O)CNC(C)(C)c1ccc2c(c1)OCO2 | -0.993%
51 | Cn1cc(C(=O)N2CCN(c3ncccn3)CC2)ccc1=O | -2.44%
52 | CC(c1nc(C2CC2)no1)N1CCN(CCN2CCCC2=O)CC1 (stereo not drawn) | -0.249%
53 | O=C(CC1CCCO1)N1CCCN(c2cccnn2)CC1 (stereo not drawn) | -3.32%
54 | CCc1cnc(CN(C)C2CCN(Cc3nnc(C4CC4)n3C)C2)o1 (stereo not drawn) | -2.36%
55 | CC(C)(NCC(=O)NC(=O)NC1CC1)c1ccc2c(c1)OCO2 | -3.04%
56 | Cc1ccc(N2CCCN(C(=O)C3CCCO3)CC2)nn1 (stereo not drawn) | 4.49%
57 | CCc1noc(C(C)N2CCN(CCN3CCCC3=O)CC2)n1 (stereo not drawn) | -2.78%
58 | COc1cccc(N2CCC(CNCc3cccc(C#N)c3)C2)c1 (stereo not drawn) | 9.04%
59 | Cc1cnn(CC2CCCN2Cc2nnc(-c3ccccc3)o2)c1 (stereo not drawn) | -4.64%
60 | CC(C)n1cc(CN2CCCN(C(=O)C3CCOC3)CC2)cn1 (stereo not drawn) | 19.9%
61 | Cc1nc(C)n(CC2CCCN(Cc3ccccc3C#N)C2)n1 (stereo not drawn) | 22.8%
62 | COc1cc(CNCc2c(C)nn(CC(C)C)c2N(C)C)ccn1 | 27.3%
63 | CC(C)n1cc(CN2CCCN(C(=O)CN3CCCC3=O)CC2)cn1 | 58%
64 | CC(C)n1cc(CN2CCCN(C(=O)C(C)n3cncn3)CC2)cn1 (stereo not drawn) | 3.68%
65 | Cc1cnn(CC(=O)N2CCCN(Cc3cnn(C(C)C)c3)CC2)c1 | -0.435%
66 | CSCCC(=O)N1CCCN(Cc2cnn(C(C)C)c2)CC1 | 34.5%
67 | CC(C)n1cc(CN2CCCN(C(=O)COC3CCCC3)CC2)cn1 | 1.39%
68 | Cc1nn(CC(C)C)c(N(C)C)c1CNCc1ccc(CO)c(F)c1 | 1.46%
69 | CC(NCc1ccc(F)cc1)c1ccc2[nH]c(=O)[nH]c2c1 (stereo not drawn) | 0.625%

Row | SMILES | cytotoxicity at 70.5 h
70 | Cc1cnn(C2CCCN(C(=O)CCc3cnn(C)c3)C2)c1 (stereo not drawn) | -4.01%
71 | Cc1nc(C)n(CC2CCCN(Cc3ccc4c(c3)OCCO4)C2)n1 (stereo not drawn) | -1.48%
72 | CC(C)c1nc(C2CCCN(C(=O)CCCn3ccnc3)C2)no1 (stereo not drawn) | -0.752%
73 | CCOc1ccc(C(=O)N2CCCC2c2c(C)nn(C)c2Cl)cn1 (stereo not drawn) | -1.78%
74 | Brc1cccc(-c2noc(CN3CCOCC3)n2)c1 | -2.61%
75 | COc1ccc(NC(=O)C(C)n2cncn2)cn1 (stereo not drawn) | -2.08%
76 | CC(C(=O)NCc1ccc(N2CCCC2)nc1)n1cncn1 (stereo not drawn) | -0.612%
77 | CC1COCCN1Cc1nc(-c2ccsc2)no1 (stereo not drawn) | -3.54%
78 | CC(C(=O)Nc1ccc(N2CCCC2)nc1)n1cccn1 (stereo not drawn) | -0.411%
79 | Cc1cnn(C2CCCN(C(=O)Cc3ccc(C)s3)C2)c1 (stereo not drawn) | -0.137%
80 | Cc1cnn(C2CCCN(C(=O)CCc3ccncc3)C2)c1 (stereo not drawn) | -0.811%
81 | CC(C)n1cc(CN2CCCN(C(=O)C(C)n3cccn3)CC2)cn1 (stereo not drawn) | -2.97%
82 | Cc1nc(C)n(CC2CCCN(Cc3cccc(C(N)=O)c3)C2)n1 (stereo not drawn) | -1.85%
83 | Cc1nc(C)n(CC2CCCN(Cc3cc(C#N)ccc3F)C2)n1 (stereo not drawn) | 0.508%
84 | CC(C)n1cc(CN2CCCN(C(=O)C3CCCN3C)CC2)cn1 (stereo not drawn) | -3.1%
85 | Cc1nn(C)c(C)c1C1CCCN1C(=O)c1ccc2c(c1)OCCO2 (stereo not drawn) | -7.1%
86 | CC(C)c1nc(C2CCCN(C(=O)CCc3cscn3)C2)no1 (stereo not drawn) | -2.82%
87 | Cc1nn(C)c(Cl)c1C1CCCN1C(=O)c1ccc(C(N)=O)cn1 (stereo not drawn) | 54.9%
88 | Cc1nn(C)c(Cl)c1C1CCCN1C(=O)c1ccncc1 (stereo not drawn) | 0.652%
89 | CCOc1ccc(CNC(C)c2ccc3[nH]c(=O)[nH]c3c2)cc1 (stereo not drawn) | 1.32%
90 | Cc1ccccc1C1(C(=O)NCCN2CCC(C)CC2)CCOCC1 | 17.6%
91 | COc1ccccc1C1(C(=O)NCCN2CCCCC2)CCOCC1 | 15.9%
92 | CC(C)(C)c1nnc(CN2CCCC2Cn2cncn2)o1 (stereo not drawn) | -11.3%

Row | SMILES | cytotoxicity at 70.5 h
93 | Cc1cccc(C(=O)NCc2cccnc2N(C)C)n1 | 1.42%
94 | Cc1ccc(N2CCCC(NCc3nnc(-c4ccco4)o3)C2)nn1 (stereo not drawn) | -13.2%
95 | Cc1ncsc1C(=O)N(Cc1ccccc1)C1CC1 | -19.8%
96 | c1ccc(-c2nnc(CNC3CCCN(c4cccnn4)C3)o2)cc1 (stereo not drawn) | -16.9%
97 | COc1ncccc1CNC(=O)c1cc(Cl)ccn1 | -8.01%
98 | O=C(O)c1cccc(S(=O)(=O)N2CCOc3ccccc32)c1 | -12.8%
99 | CN(C)c1cc(CNC(=O)Nc2ccc(N3CCCC3)nc2)ccn1 | 1.53%
100 | CCC(NC(=O)C1CC1)c1ccccc1OCC(=O)N1CCCC1 (stereo not drawn) | -6.4%
101 | CCC(NC(=O)COC)c1ccccc1OCC(=O)N1CCCC1 (stereo not drawn) | -4.2%
102 | COc1ncccc1CNC(=O)c1ccc(C)[nH]c1=O | 12.6%
103 | CN(C)c1ccc(CNC(=O)Nc2ccc(S(C)(=O)=O)nc2)cc1 | -7.69%
104 | Cc1cccc(NC(=O)C2CSCN2C(=O)c2cnccn2)c1C (stereo not drawn) | -7.92%
105 | Cc1cnn(C2CCCN(C(=O)c3ccc(-n4cnnn4)cc3)C2)c1 (stereo not drawn) | 0.981%
106 | Cc1ccc(NC(=O)C2CSCN2C(=O)c2cccnc2)c(C)c1 (stereo not drawn) | 6.06%
107 | c1ccc(-n2ccc(CNC3CCc4ncnn4C3)n2)cc1 (stereo not drawn) | -5.75%
108 | c1ccc(Cc2nnc(CN3CCCC(Cn4cncn4)C3)o2)cc1 (stereo not drawn) | -13.3%
109 | Cc1ccc(-c2noc(CN3CCn4c(nnc4C4CC4)C3)n2)cc1 | -16%
110 | c1cncc(-c2noc(CN3CCn4c(nnc4C4CC4)C3)n2)c1 | -1.9%
111 | Cc1noc(C)c1S(=O)(=O)NC(=O)COc1cccc(C(C)C)c1 | -2.21%
112 | Cc1noc(C)c1S(=O)(=O)NC(=O)COc1ccc(C(C)C)cc1 | -9.11%
113 | COc1c(C)cc(CNCc2ccnc(N3CCOCC3)c2)cc1C | 2.82%

From ChEMBL document CHEMBL3507680, “University of Dundee, Gates Library screen for HepG2 cell viability”
